Experimental data published in patent publication US9120798B2, “Amino-heteroaryl 7-hydroxy-spiropiperidine indolinyl antagonists of P2Y1 receptor” (priority 2012, dated 2015).
Like-named read-outs stand apart in the source and are kept apart here.

Columns and labels:
[1] = target: cloned human P2Y1 receptors (Homo sapiens (Human), UniProt P47900); experiment: Binding Assay B: Scintillation Proximity Assay (SPA) for P2Y1 binding
Description: Binding Assay B—Scintillation Proximity Assay (SPA) for P2Y1 Binding
A SPA membrane binding assay was used to identify inhibitors of [^33P] […] Binding reactions were performed in 384-well OptiPlates (PerkinElmer Life Sciences, Cat #6007299) in a volume of 50 μL containing ˜15 fmol of P2Y1 receptor (1.7 μg of total protein), 0.3 nM [^33P] […] Reactions were allowed to proceed to completion at room temperature for 1 hour followed by centrifugation of the plate for 5 min. About 40 μL of the aqueous solution was aspirated. Plates were sealed and the [^33P]

[2] = test system: human platelet rich plasma (PRP); experiment: ADP induced platelet aggregation assay; assay type: cell-based; conditions: 5 min, read-out: PA IC50 (μM) @ 10 μM ADP
Description: ADP Induced Platelet Aggregation Assay
The ability of P2Y1 antagonists covered in the present invention to inhibit platelet aggregation induced by 10 μM ADP was tested using human platelet rich plasma (PRP) as described in Platelet Protocols: Research and Clinical Laboratory Procedures (White, M. M. et al., Academic Press (1999)). Human blood was collected in 30 μM (final concentration in blood) argatroban (GSK) as the anticoagulant at a ratio of 1 ml per 9 ml of blood. The PRP was isolated by centrifugation at 170 g for 12 minutes. The platelet poor plasma (PPP) was used as the blank for optical aggregometry. Compounds of the present invention in DMSO solution was preincubated with 250 μl PRP at 37° C. for 1 minute with stirring speed of 1000 rpm. Aggregation was initiated by addition of 2.5 μl of 1 mM ADP (Chrono-log, Havertown, Pa.) for a final ADP concentration of 10 uM. Platelet aggregation was monitored using Optical Aggregometer (Chrono-log, Havertown, Pa.) and the area under the curve (AUC) at 5 minute was measured. IC50 was calculated using vehicle control as 0% inhibition.
The platelet aggregation assay measures the in vitro antiplatelet activity of a compound in platelet rich plasma. The assay is sensitive to plasma protein binding, and is believed to be a better predictor of actual in vivo activity.

[3] = SPA, 0.3 nM [33P] 2MeS-ADP, Cheng-Prusoff, read-out: P2Y1 Ki (nM) using binding assay B

cloned human P2Y1 receptors, sequence (P47900 whole entry): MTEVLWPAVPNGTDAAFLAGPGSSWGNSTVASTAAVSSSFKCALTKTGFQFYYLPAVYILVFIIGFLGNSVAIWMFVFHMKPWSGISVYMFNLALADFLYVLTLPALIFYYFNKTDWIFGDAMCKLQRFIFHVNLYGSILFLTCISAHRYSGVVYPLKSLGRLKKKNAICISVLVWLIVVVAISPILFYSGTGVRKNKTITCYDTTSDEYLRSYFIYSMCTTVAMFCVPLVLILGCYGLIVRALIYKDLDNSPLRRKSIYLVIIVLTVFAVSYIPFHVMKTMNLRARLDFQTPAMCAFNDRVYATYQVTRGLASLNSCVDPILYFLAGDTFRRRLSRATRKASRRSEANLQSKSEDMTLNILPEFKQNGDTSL

| SMILES | Ki [1] | IC50 [2] | Ki [1, 3] |
| --- | --- | --- | --- |
| CC(C)(C)CN1CCC2(CC1)CN(c1ccccc1Nc1nnc(-c3ccccc3)s1)c1c(O)ccc(C(F)(F)F)c12 [Example 1, 1′-Neopentyl-1-(2-(5-phenyl-1,3,4-thiadiazol-2-ylamino)phenyl)-4-(trifluoromethyl)spiro[indoline-3,4′-piperidin]-7-ol] | 10 nM | 1 µM |  |
| CC(C)(C)CN1CCC2(CC1)CN(c1ccccc1Nc1nnc(-c3ccc(C(C)(C)C)cc3)s1)c1c(O)ccc(C(F)(F)F)c12 [Example 2, 1-(2-(5-(4-tert-Butylphenyl)-1,3,4-thiadiazol-2-ylamino)phenyl)-1′-neopentyl-4-(trifluoromethyl)spiro[indoline-3,4′-piperidin]-7-ol] |  | 0.9 µM | 26 nM |
| CC(C)(C)CN1CCC2(CC1)CN(c1ccccc1Nc1nnc(-c3ccc(C(F)(F)F)cc3)s1)c1c(O)ccc(C(F)(F)F)c12 [Example 3, 1′-Neopentyl-4-(trifluoromethyl)-1-(2-(5-(4-(trifluoromethyl)phenyl)-1,3,4-thiadiazol-2-ylamino)phenyl)spiro[indoline-3,4′-piperidin]-7-ol] |  | 0.5 µM | 16 nM |
| CC(C)(C)CN1CCC2(CC1)CN(c1ccccc1Nc1nnc(-c3ccc(F)cc3)s1)c1c(O)ccc(C(F)(F)F)c12 [Example 4, 1-(2-(5-(4-Fluorophenyl)-1,3,4-thiadiazol-2-ylamino)phenyl)-1′-neopentyl-4-(trifluoromethyl)spiro[indoline-3,4′-piperidin]-7-ol] | 15 nM | 2.2 µM |  |
| CC(C)(C)CN1CCC2(CC1)CN(c1ccccc1Nc1nnc(-c3cccc(F)c3)s1)c1c(O)ccc(C(F)(F)F)c12 [Example 5, 1-(2-(5-(3-Fluorophenyl)-1,3,4-thiadiazol-2-ylamino)phenyl)-1′-neopentyl-4-(trifluoromethyl)spiro[indoline-3,4′-piperidin]-7-ol] | 12 nM | 1.6 µM |  |
| CC(C)(C)CN1CCC2(CC1)CN(c1ccccc1Nc1nnc(-c3ccccn3)s1)c1c(O)ccc(C(F)(F)F)c12 [Example 6, 1′-Neopentyl-1-(2-(5-(pyridin-2-yl)-1,3,4-thiadiazol-2-ylamino)phenyl)-4-(trifluoromethyl)spiro[indoline-3,4′-piperidin]-7-ol] | 11 nM | 2.3 µM |  |
| CC(C)(C)CN1CCC2(CC1)CN(c1ccccc1Nc1nnc(-c3ccc(C(F)(F)F)cn3)s1)c1c(O)ccc(Cl)c12 [Example 8, 4-Chloro-1′-neopentyl-1-(2-(5-(5-(trifluoromethyl)pyridin-2-yl)-1,3,4-thiadiazol-2-ylamino)phenyl)spiro[indoline-3,4′-piperidin]-7-ol] | 7 nM | 1.5 µM |  |
| CC(C)(C)CN1CCC2(CC1)CN(c1ccccc1Nc1nnc(-c3ccncc3)s1)c1c(O)ccc(Cl)c12 [Example 10, 4-Chloro-1′-neopentyl-1-(2-((5-(pyridin-4-yl)-1,3,4-thiadiazol-2-yl)amino)phenyl)spiro[indoline-3,4′-piperidin]-7-ol] | 40.2 nM | 11.4 µM |  |
| CC(C)(C)CN1CCC2(CC1)CN(c1ccccc1Nc1ncc(-c3ccccc3)s1)c1c(O)ccc(Cl)c12 [Example 11, 4-Chloro-1′-neopentyl-1-(2-(5-phenylthiazol-2-ylamino)phenyl)spiro[indoline-3,4′-piperidin]-7-ol] | 16 nM | 3.7 µM |  |
| CC(C)(C)CN1CCC2(CC1)CN(c1ccccc1Nc1nnc(-c3cnc4ccccc4n3)s1)c1c(O)ccc(Cl)c12 [Example 16, 4-chloro-1′-neopentyl-1-(2-((5-(quinoxalin-2-yl)-1,3,4-thiadiazol-2-yl)amino)phenyl)spiro[indoline-3,4′-piperidin]-7-ol] | 66 nM | 17.7 µM |  |
| COC(=O)c1nnc(Nc2ccccc2N2CC3(CCN(CC(C)(C)C)CC3)c3c(Cl)ccc(O)c32)s1 [Example 17, methyl 5-((2-(4-chloro-7-hydroxy-1′-neopentylspiro[indoline-3,4′-piperidin]-1-yl)phenyl)-amino)-1,3,4-thiadiazole-2-carboxylate] | 48 nM | 7.2 µM |  |
| Cn1nc(C(C)(C)C)cc1-c1nnc(Nc2ccccc2N2CC3(CCN(CC(C)(C)C)CC3)c3c(Cl)ccc(O)c32)s1 [Example 18, 1-(2-((5-(3-(tert-butyl)-1-methyl-1H-pyrazol-5-yl)-1,3,4-thiadiazol-2-yl)amino)phenyl)-4-chloro-1′-neopentylspiro[indoline-3,4′-piperidin]-7-ol] | 33 nM | 1.8 µM |  |
| CC(C)(C)CN1CCC2(CC1)CN(c1ccccc1Nc1nnc(-c3ccccc3Cl)s1)c1c(O)ccc(Cl)c12 [Example 19, 4-chloro-1-(2-((5-(2-chloro-phenyl)-1,3,4-thiadiazol-2-yl)amino)phenyl)-1′-neopentylspiro[indoline-3,4′-piperidin]-7-ol] |  | 10.7 µM | 28 nM |
| CC(C)(C)CN1CCC2(CC1)CN(c1ccccc1Nc1nnc(-c3cccc(Cl)c3)s1)c1c(O)ccc(Cl)c12 [Example 20, 4-chloro-1-(2-((5-(3-chloro-phenyl)-1,3,4-thiadiazol-2-yl)amino)phenyl)-1′-neopentylspiro[indoline-3,4′-piperidin]-7-ol] |  | 2.6 µM | 16 nM |
| CC(C)(C)CN1CCC2(CC1)CN(c1ccccc1Nc1nnc(-c3ccc(Cl)cc3)s1)c1c(O)ccc(Cl)c12 [Example 21, 4-chloro-1-(2-((5-(4-chloro-phenyl)-1,3,4-thiadiazol-2-yl)amino)phenyl)-1′-neopentylspiro[indoline-3,4′-piperidin]-7-ol] |  | 1.3 µM | 13 nM |
| Cc1cccc(-c2nnc(Nc3ccccc3N3CC4(CCN(CC(C)(C)C)CC4)c4c(Cl)ccc(O)c43)s2)c1 [Example 22, 4-chloro-1′-neopentyl-1-(2-((5-(m-tolyl)-1,3,4-thiadiazol-2-yl)amino)phenyl)spiro[indoline-3,4′-piperidin]-7-ol] | 22 nM | 4 µM |  |
| CC(C)(C)CN1CCC2(CC1)CN(c1ccccc1Nc1nnc(-c3cc(Cl)cc(Cl)c3)s1)c1c(O)ccc(Cl)c12 [Example 23, 4-chloro-1-(2-((5-(3,5-dichloro-phenyl)-1,3,4-thiadiazol-2-yl)amino)phenyl)-1′-neopentylspiro[indoline-3,4′-piperidin]-7-ol] | 19 nM | 3.4 µM |  |
| CC(C)(C)CN1CCC2(CC1)CN(c1ccccc1Nc1nnc(-c3cc(F)ccc3Cl)s1)c1c(O)ccc(Cl)c12 [Example 24, 4-chloro-1-(2-((5-(2-chloro-5-fluorophenyl)-1,3,4-thiadiazol-2-yl)amino)phenyl)-1′-neopentylspiro[indoline-3,4′-piperidin]-7-ol] | 28 nM | 4.5 µM |  |
| CC(C)(C)CN1CCC2(CC1)CN(c1ccccc1Nc1nnc(-c3ccc(Cl)c(Cl)c3)s1)c1c(O)ccc(Cl)c12 [Example 25, 4-chloro-1-(2-((5-(3,4-dichloro-phenyl)-1,3,4-thiadiazol-2-yl)amino)phenyl)-1′-neopentylspiro[indoline-3,4′-piperidin]-7-ol] | 19 nM | 3.7 µM |  |
| CC(C)(C)CN1CCC2(CC1)CN(c1ccccc1Nc1nnc(-c3ccc(OC(F)(F)F)cc3)s1)c1c(O)ccc(Cl)c12 [Example 26, 4-chloro-1′-neopentyl-1-(2-((5-(4-(trifluoromethoxy)phenyl)-1,3,4-thiadiazol-2-yl)amino)phenyl)spiro[indoline-3,4′-piperidin]-7-ol] |  | 0.9 µM | 13 nM |
